Assay results as given in ChEMBL document CHEMBL4330107, “Synthesis and biological evaluation of 3-aryl-4-indolyl-maleimides as potent mutant isocitrate dehydrogenase-1 inhibitors” (Bioorg Med Chem, 2019).
Each block holds one molecule with its values, some of them ahead of it. The source made the active and inactive calls. No cut-off for these calls is given here.

Assays:
[1] = target: Isocitrate dehydrogenase [NADP] cytoplasmic (Homo sapiens, UniProt O75874, R132H); experiment: Inhibition of recombinant human N-terminal GST-fused IDH1 R132H mutant expressed in Escherichia coli using alpha-ketoglutarate as substrate preincubated for 15 mins followed by substrate addition
[2] = system: Isocitrate dehydrogenase [NADP] cytoplasmic (Homo sapiens), O75874 [R132H]; experiment: Inhibition of IDH1 R132H mutant in human TF1 cells assessed as reversal of cell differentiation block by measuring increase in HBG mRNA expression at 5 to 10 uM after 7 days by RT-qPCR analysis; type: cell-based
[3] = system: Isocitrate dehydrogenase [NADP] cytoplasmic (Homo sapiens), O75874 [R132H]; experiment: Inhibition of human IDH1 R132H mutant expressed in human U87MG cells assessed as reduction in 2-HG production after 48 hrs by LC-MS/MS analysis; type: cell-based
[4] = Inhibition of Fructose-1,6-bisphosphatase expressed in Escherichia coli BL21 (DE3) by glucose-6-phosphate dehydrogenase/phosphoglucoisomerase coupled spectrophotometric method; set-up: species or system Corynebacterium glutamicum
[5] = target: T1, Isocitrate dehydrogenase [NADP], mitochondrial (Homo sapiens, UniProt P48735); experiment: Inhibition of recombinant human N-terminal GST-fused wild-type IDH2 using sodium (D)-isocitrate as substrate preincubated for 15 mins followed by substrate addition by fluorescence assay
T1 sequence (P48735 whole entry): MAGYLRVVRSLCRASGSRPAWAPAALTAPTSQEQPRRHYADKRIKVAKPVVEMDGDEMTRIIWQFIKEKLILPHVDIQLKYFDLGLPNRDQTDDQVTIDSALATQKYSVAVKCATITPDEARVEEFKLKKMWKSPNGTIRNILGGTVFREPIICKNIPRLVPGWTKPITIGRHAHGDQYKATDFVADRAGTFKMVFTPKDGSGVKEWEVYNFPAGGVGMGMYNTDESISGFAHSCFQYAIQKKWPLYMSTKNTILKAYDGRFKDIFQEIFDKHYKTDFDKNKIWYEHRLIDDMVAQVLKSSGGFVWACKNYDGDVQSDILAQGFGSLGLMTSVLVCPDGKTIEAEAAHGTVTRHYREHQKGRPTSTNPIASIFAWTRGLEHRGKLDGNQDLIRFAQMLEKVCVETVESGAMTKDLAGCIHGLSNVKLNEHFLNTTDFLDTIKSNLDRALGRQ

Hexokinase-4 = target: T2, Hexokinase-4 (Homo sapiens, UniProt P35557); experiment: Inhibition of recombinant human N-terminal GST-fused glucokinase expressed in Escherichia coli using […] by spectrophotometric assay
T2 sequence (P35557 whole entry): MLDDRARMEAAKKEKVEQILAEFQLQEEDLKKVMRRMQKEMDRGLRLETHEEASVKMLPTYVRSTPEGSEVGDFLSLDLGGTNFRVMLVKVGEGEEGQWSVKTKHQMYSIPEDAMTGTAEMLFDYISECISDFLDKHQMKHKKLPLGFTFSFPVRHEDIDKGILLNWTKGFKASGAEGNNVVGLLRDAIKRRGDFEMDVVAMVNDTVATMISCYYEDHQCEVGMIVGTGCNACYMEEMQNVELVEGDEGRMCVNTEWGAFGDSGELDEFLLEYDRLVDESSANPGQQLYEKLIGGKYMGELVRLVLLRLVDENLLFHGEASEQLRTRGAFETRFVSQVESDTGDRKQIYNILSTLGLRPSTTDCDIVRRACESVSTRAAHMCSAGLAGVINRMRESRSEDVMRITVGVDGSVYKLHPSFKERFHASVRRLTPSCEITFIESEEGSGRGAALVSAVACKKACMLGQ

[6] = target: Isocitrate dehydrogenase [NADP] cytoplasmic (Homo sapiens, UniProt O75874, R132C); experiment: Inhibition of recombinant human N-terminal GST-fused IDH1 R132C mutant expressed in Escherichia coli using alpha-ketoglutarate as substrate preincubated for 15 mins followed by substrate addition
[7] = Inhibition of bovine GDH using L-glutamate as substrate measured after 1 hr; set-up: species or system Bos taurus
[8] = target: Isocitrate dehydrogenase [NADP] cytoplasmic (Homo sapiens, UniProt O75874); experiment: Inhibition of recombinant human N-terminal GST-fused wild-type IDH1 using sodium (D)-isocitrate as substrate by fluorescence assay
[9] = target: Isocitrate dehydrogenase [NADP] cytoplasmic (Homo sapiens, UniProt O75874, R132L); experiment: Inhibition of recombinant human N-terminal GST-fused IDH1 R132L mutant expressed in Escherichia coli using alpha-ketoglutarate as substrate preincubated for 15 mins followed by substrate addition
[10] = system: Isocitrate dehydrogenase [NADP] cytoplasmic (Homo sapiens), O75874 [R132H]; experiment: Inhibition of human IDH1 R132H mutant expressed in human U87MG cells assessed as reduction in 2-HG production at 5 to 20 uM after 48 hrs by LC-MS/MS analysis; type: cell-based
[11] = system: Isocitrate dehydrogenase [NADP] cytoplasmic (Homo sapiens), O75874 [R132H]; experiment: Inhibition of recombinant human N-terminal GST-fused IDH1 R132H mutant expressed in Escherichia coli at 20 ug/ml using alpha-ketoglutarate as substrate preincubated for 15 mins followed by substrate addition relative to control

Isocitrate dehydrogenase [NADP] cytoplasmic (Homo sapiens, UniProt O75874, R132H), sequence (O75874 2-414 R132H limits assumed): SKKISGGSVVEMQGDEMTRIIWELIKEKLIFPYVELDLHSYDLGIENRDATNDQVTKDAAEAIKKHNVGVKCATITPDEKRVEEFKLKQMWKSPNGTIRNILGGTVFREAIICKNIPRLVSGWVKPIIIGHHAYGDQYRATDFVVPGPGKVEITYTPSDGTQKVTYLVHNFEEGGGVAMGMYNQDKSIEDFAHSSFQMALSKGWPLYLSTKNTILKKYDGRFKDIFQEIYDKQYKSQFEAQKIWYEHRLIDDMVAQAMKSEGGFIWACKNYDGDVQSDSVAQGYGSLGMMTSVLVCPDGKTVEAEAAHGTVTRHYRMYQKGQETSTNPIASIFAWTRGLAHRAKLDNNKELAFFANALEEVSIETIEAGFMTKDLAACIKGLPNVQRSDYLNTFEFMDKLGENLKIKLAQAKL
Isocitrate dehydrogenase [NADP] cytoplasmic (Homo sapiens, UniProt O75874, R132L), sequence (O75874 2-414 R132L limits assumed): as the sequence (O75874 2-414 R132H limits assumed) above, with H131L counted along it
Isocitrate dehydrogenase [NADP] cytoplasmic (Homo sapiens, UniProt O75874, R132C), sequence (O75874 2-414 R132C limits assumed): as the sequence (O75874 2-414 R132H limits assumed) above, with H131C counted along it
Isocitrate dehydrogenase [NADP] cytoplasmic (Homo sapiens), O75874 [R132H], sequence (O75874 whole entry R132H, the tested form may be a part): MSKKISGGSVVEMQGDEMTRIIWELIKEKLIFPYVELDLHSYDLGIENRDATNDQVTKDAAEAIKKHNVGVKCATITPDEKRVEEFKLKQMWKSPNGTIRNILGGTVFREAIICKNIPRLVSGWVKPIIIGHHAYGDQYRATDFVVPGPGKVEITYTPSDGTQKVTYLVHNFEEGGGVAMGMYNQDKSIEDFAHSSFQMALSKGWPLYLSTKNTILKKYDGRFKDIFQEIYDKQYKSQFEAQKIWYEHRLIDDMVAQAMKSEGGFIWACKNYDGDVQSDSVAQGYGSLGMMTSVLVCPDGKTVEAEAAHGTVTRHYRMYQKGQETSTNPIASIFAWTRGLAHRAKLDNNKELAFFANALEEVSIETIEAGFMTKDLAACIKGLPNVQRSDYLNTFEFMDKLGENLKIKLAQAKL
Isocitrate dehydrogenase [NADP] cytoplasmic (Homo sapiens, UniProt O75874), sequence (O75874 whole entry, the tested form may be a part): as the sequence (O75874 whole entry R132H, the tested form may be a part) above, with H132R counted along it

Compound: O=C1NC(=O)C(n2cnc3ccccc32)=C1c1cn(CCCn2ccnc2)c2ccccc12
IC50 [1]: 7910 nM

Compound: Cn1cc(C2=C(c3cn(CCCn4ccnc4)c4ccccc34)C(=O)NC2=O)c2ccccc21
IC50 [1]: 1480 nM

Compound: Cn1nc(C2=C(c3cn(CCCO)c4ccccc34)C(=O)NC2=O)c2cccnc21
IC50 [1]: 39600 nM

Compound: Cc1ccccc1C(C(=O)NC1CCCCC1)N(C(=O)Cn1ccnc1C)c1cccc(F)c1 (stereo not given)
IC50 [4]: > 20 µM | IC50 [5]: > 20 µM | IC50 (Hexokinase-4): > 20 µM | IC50 [6]: 227 nM | IC50 [7]: > 20 µM | IC50 [8]: > 20 µM | IC50 [9]: 186 nM | IC50 [1]: 20 nM

Compound: O=C1NC(=O)C(n2ccc3ccncc32)=C1c1cn(CCCn2ccnc2)c2ccccc12
IC50 [1]: 1450 nM

Compound: Cn1nc(C2=C(c3cn(CCCN4CCOCC4)c4ccccc34)C(=O)NC2=O)c2cccnc21
inhibition [11]: 7.36%

Compound: Cn1nc(C2=C(c3cn(CCCn4cncn4)c4ccccc34)C(=O)NC2=O)c2cccnc21
IC50 [1]: 11900 nM

Compound: O=C1NC(=O)C(c2cn(CCCn3ccnc3)c3ccccc23)=C1c1ccccc1
IC50 [1]: 1980 nM

Compound: Cn1cc(C2=C(c3nn(CCCn4cncn4)c4ncccc34)C(=O)NC2=O)c2ccccc21
inhibition [11]: 20.6%

Compound: CN1C(=O)C(c2cn(CCCn3ccnc3)c3ccccc23)=C(c2nn(C)c3ncccc23)C1=O
IC50 [1]: 930 nM

Compound: O=C1NC(=O)C(c2cn(CCCn3ccnc3)c3ccccc23)=C1c1coc2ncccc12
IC50 [1]: 2220 nM

Compound: O=C1NC(=O)C(n2ccc3cnccc32)=C1c1cn(CCCn2ccnc2)c2ccccc12
IC50 [1]: 3720 nM

Compound: O=C1NC(=O)C(c2cn(CCCn3ccnc3)c3ccccc23)=C1c1cc[nH]c1
IC50 [1]: 1580 nM

Compound: Cn1nc(C2=C(c3cn(CCCn4ccnc4)c4ccccc34)C(=O)NC2=O)c2ccccc21
IC50 [1]: 1540 nM

Compound: O=C1NC(=O)C(c2cn(CCCn3ccnc3)c3ccccc23)=C1c1cccc2ccccc12
IC50 [1]: 3050 nM

Compound: O=C1NC(=O)C(n2nnc3ccccc32)=C1c1cn(CCCn2ccnc2)c2ccccc12
IC50 [1]: 1400 nM

Compound: Cn1cc(C2=C(c3nn(CCCN4CCOCC4)c4ncccc34)C(=O)NC2=O)c2ccccc21
inhibition [11]: 17.3%

Compound: Cn1nc(C2=C(c3c[nH]c4ccccc34)C(=O)NC2=O)c2cccnc21
inhibition [11]: 38.1%

Continued, values first:

IC50 [1]: 230 nM
Compound: CCn1nc(C2=C(c3cn(CCCn4ccnc4)c4ccccc34)C(=O)NC2=O)c2cccnc21

IC50 [1]: 5000 nM
Compound: Cn1nc(C2=C(c3cn(CCCn4ccnc4)c4ccc(Br)cc34)C(=O)NC2=O)c2cccnc21

inhibition [2]: Active | inhibition [3]: Dose-dependent effect | IC50 [4]: > 20 µM | IC50 [5]: > 20 µM | IC50 (Hexokinase-4): > 20 µM | IC50 [6]: 460 nM | IC50 [7]: > 20 µM | IC50 [8]: > 20 µM | IC50 [9]: 192 nM | IC50 [1]: 60 nM
Compound: Cn1nc(C2=C(c3cn(CCCn4ccnc4)c4cc(Br)ccc34)C(=O)NC2=O)c2cccnc21

IC50 [1]: 810 nM
Compound: Cn1nc(C2=C(c3cn(CCCn4ccnc4)c4ccc(F)cc34)C(=O)NC2=O)c2cccnc21

IC50 [1]: 1280 nM
Compound: Cn1cc(C2=C(c3nn(CCCn4ccnc4)c4ncccc34)C(=O)NC2=O)c2ccccc21

IC50 [4]: > 20 µM | IC50 [5]: > 20 µM | IC50 (Hexokinase-4): > 20 µM | IC50 [6]: 386 nM | IC50 [7]: > 20 µM | inhibition [10]: inactive | IC50 [8]: > 20 µM | IC50 [9]: 398 nM | IC50 [1]: 50 nM
Compound: Cn1nc(C2=C(c3cn(CCCn4ccnc4)c4ccccc34)C(=O)NC2=O)c2cccnc21

IC50 [1]: 290 nM
Compound: Cc1cccc2c(C3=C(c4nn(C)c5ncccc45)C(=O)NC3=O)cn(CCCn3ccnc3)c12

IC50 [1]: 190 nM
Compound: COc1ccc2c(C3=C(c4nn(C)c5ncccc45)C(=O)NC3=O)cn(CCCn3ccnc3)c2c1

IC50 [1]: 4420 nM
Compound: Cn1nc(C2=C(c3cn(CCn4ccnc4)c4ccccc34)C(=O)NC2=O)c2cccnc21

IC50 [1]: 13600 nM
Compound: COc1ccc2c(c1)c(C1=C(c3nn(C)c4ncccc34)C(=O)NC1=O)cn2CCCn1ccnc1

inhibition [3]: Dose-dependent effect | IC50 [4]: > 20 µM | IC50 [5]: > 20 µM | IC50 (Hexokinase-4): > 20 µM | IC50 [6]: 423 nM | IC50 [7]: > 20 µM | IC50 [8]: > 20 µM | IC50 [9]: 307 nM | IC50 [1]: 140 nM
Compound: Cn1nc(C2=C(c3cn(CCCn4ccnc4)c4cc(Cl)ccc34)C(=O)NC2=O)c2cccnc21

IC50 [1]: 930 nM
Compound: Cn1nc(C2=C(c3cn(CCCn4ccnc4)c4cccc(Br)c34)C(=O)NC2=O)c2cccnc21

IC50 [1]: 950 nM
Compound: CCCCn1nc(C2=C(c3cn(CCCn4ccnc4)c4ccccc34)C(=O)NC2=O)c2cccnc21

inhibition [3]: Dose-dependent effect | IC50 [4]: > 20 µM | IC50 [5]: > 20 µM | IC50 (Hexokinase-4): > 20 µM | IC50 [6]: 483 nM | IC50 [7]: > 20 µM | IC50 [8]: > 20 µM | IC50 [9]: 189 nM | IC50 [1]: 60 nM
Compound: Cc1ccc2c(C3=C(c4nn(C)c5ncccc45)C(=O)NC3=O)cn(CCCn3ccnc3)c2c1

IC50 [4]: > 20 µM | IC50 [5]: > 20 µM | IC50 (Hexokinase-4): > 20 µM | IC50 [6]: 415 nM | IC50 [7]: > 20 µM | inhibition [10]: inactive | IC50 [8]: > 20 µM | IC50 [9]: 311 nM | IC50 [1]: 100 nM
Compound: Cn1nc(C2=C(c3cn(CCCCn4ccnc4)c4ccccc34)C(=O)NC2=O)c2cccnc21

inhibition [3]: Dose-dependent effect | IC50 [4]: > 20 µM | IC50 [5]: > 20 µM | IC50 (Hexokinase-4): > 20 µM | IC50 [6]: 334 nM | IC50 [7]: > 20 µM | IC50 [8]: > 20 µM | IC50 [9]: 246 nM | IC50 [1]: 90 nM
Compound: Cn1nc(C2=C(c3cn(CCCn4ccnc4)c4cc(F)ccc34)C(=O)NC2=O)c2cccnc21
